Measurements reported in patent publication US20110092490A1, “PYRIMIDINES, TRIAZINES AND THEIR USE AS PHARMACEUTICAL AGENTS” (THE UNIVERSITY OF NOTTINGHAM, priority 2008, published 2011).
Like-named read-outs stand apart in the source and are kept apart here.

Legend:
HCT-116 = experiment: 72-h MTT cytotoxicity assay; assay type: cell-based, human; conditions: for GI50: Homo sapiens, HCT-116, HCT116 cells, 72-h MTT
Experimental: (§1) MTT cytotoxicity assay. […] Human tumour cell lines were obtained from ECACC (European Collection of Cell Cultures). Standard 72-h MTT (thiazolyl blue; 3-[4,5-dimethylthiazol-2-yl]-2,5-diphenyltetrazolium bromide, 2 mg/ml in phosphate buffered saline) assays were performed. In short: cells were seeded into 96-well plates according to doubling time and incubated overnight at 37° C. Test compounds were made up in DMSO and a ⅓ dilution series prepared in 100 μL cell media, added to cells (in triplicates) and incubated for 72 hr at 37° C. MTT was made up as a stock of 5 mg/mL in cell media and filter-sterilised. Media was removed from cells followed by a wash with 200 μL PBS. MTT solution was then added at 20 μL per well and incubated in the dark at 37° C. for 4 h. MTT solution was removed and cells again washed with 200 μL PBS. MTT dye was solubilised with 200 μL per well of DMSO with agitation. Absorbance was read at 550 nm on an Anthos Labtec Systems plate reader.

MCF-7 = experiment: 72-h MTT cytotoxicity assay; assay type: cell-based, human; conditions: for GI50: Homo sapiens, MCF7 cells, 72-h MTT
Experimental: as §1

[1] = 72-h MTT cytotoxicity assay; assay type: cell-based; conditions: human, MRC5 cells
Experimental: as §1

CDK9 = CDK9 (Homo sapiens, UniProt P50750); experiment: Kinase assay (radioactive phosphate incorporation); assay type: biochemical
Chain of CDK9 (P50750 whole entry, species assumed): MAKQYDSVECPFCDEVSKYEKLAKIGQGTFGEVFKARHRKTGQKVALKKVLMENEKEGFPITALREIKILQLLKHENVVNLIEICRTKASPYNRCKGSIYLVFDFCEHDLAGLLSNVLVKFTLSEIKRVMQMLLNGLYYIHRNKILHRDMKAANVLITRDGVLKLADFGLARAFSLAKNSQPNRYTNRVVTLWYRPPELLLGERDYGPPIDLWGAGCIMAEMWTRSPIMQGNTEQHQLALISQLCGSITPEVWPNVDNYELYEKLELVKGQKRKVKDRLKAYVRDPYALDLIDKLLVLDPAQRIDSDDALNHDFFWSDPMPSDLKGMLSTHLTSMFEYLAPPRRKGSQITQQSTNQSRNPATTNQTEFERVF
Chain of CDK9 (O60563 whole entry partner, species assumed): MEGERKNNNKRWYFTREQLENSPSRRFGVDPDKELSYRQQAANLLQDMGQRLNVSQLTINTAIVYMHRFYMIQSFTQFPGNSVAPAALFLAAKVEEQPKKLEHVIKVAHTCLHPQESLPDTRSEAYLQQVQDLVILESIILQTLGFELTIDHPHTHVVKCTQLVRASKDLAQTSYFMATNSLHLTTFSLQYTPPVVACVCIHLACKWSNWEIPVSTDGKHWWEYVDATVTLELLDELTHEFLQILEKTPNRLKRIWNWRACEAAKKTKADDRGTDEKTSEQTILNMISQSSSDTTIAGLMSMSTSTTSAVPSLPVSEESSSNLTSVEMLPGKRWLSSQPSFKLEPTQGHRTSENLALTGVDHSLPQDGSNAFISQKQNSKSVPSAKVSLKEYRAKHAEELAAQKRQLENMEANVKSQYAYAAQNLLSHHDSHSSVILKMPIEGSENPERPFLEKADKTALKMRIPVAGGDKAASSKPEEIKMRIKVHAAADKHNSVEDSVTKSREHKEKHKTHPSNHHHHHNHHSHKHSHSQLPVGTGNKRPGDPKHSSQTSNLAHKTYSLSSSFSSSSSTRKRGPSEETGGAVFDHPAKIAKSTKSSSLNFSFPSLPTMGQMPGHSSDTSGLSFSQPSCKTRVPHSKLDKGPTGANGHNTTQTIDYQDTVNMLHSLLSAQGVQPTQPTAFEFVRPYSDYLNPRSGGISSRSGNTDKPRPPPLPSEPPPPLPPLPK
Experimental: (§2) Kinase assays. […] This was achieved by measurement of incorporation of radioactive phosphate from ATP into appropriate polypeptide substrates. Recombinant protein kinases and kinase complexes were produced or obtained commercially. Assays were performed using 96-well plates and appropriate assay buffers (typically 25 mM β-glycerophosphate, 20 mM MOPS, 5 mM EGTA, 1 mM DTT, 1 mM […], pH 7.4), into which were added 2-4 μg of active enzyme with appropriate substrates. The reactions were initiated by addition of Mg/ATP mix (15 mM MgCl2+100 μM ATP with 30-50 kBq per well of [γ-^32P]-ATP) and mixtures incubated as required at 30° C.; Reactions were stopped on ice, followed by filtration through p81 filterplates or GF/C filterplates (Whatman Polyfiltronics, Kent, UK). After washing 3 times with 75 mM aq orthophosphoric acid, plates were dried, scintillant added and incorporated radioactivity measured in a scintillation counter (TopCount, Packard Instruments, Pangbourne, Berks, UK). Compounds for kinase assay were made up as 10 mM stocks in DMSO and diluted into 10% DMSO in assay buffer.

CDK2 = CDK2 (Homo sapiens, UniProt P24941); experiment: Kinase assay (radioactive phosphate incorporation); assay type: biochemical; conditions: CDK2-cyclinE; read-out: Kinase inhibition IC50 CDK2-cyclinE
Experimental: as §2

A549 = experiment: 72-h MTT cytotoxicity assay; assay type: cell-based; conditions: read-out: 72-h MTT IC50 (μM), human cell line, lung
Experimental: (§3) MTT cytotoxicity assay. The compounds from the examples above were subjected to a standard cellular proliferation assay using the method described previously (Haselsberger, K. et al. Anti Cancer Drugs 1996, 7, (3), 331-8. Loveland, B. E. et al. Biochemistry International 1992, 27, (3), 501-10). Human tumour cell lines were obtained from ECACC (European Collection of Cell Cultures). Standard 72-h MTT (thiazolyl blue; 3-[4,5-dimethylthiazol-2-yl]-2,5-diphenyltetrazolium bromide, 2 mg/ml in phosphate buffered saline) assays were performed. In short: cells were seeded into 96-well plates according to doubling time and incubated overnight at 37° C. Test compounds were made up in DMSO and a ⅓ dilution series prepared in 100 μL cell media, added to cells (in triplicates) and incubated for 72 hr at 37° C. MTT was made up as a stock of 5 mg/mL in cell media and filter-sterilised. Media was removed from cells followed by a wash with 200 μL PBS. MTT solution was then added at 20 μL per well and incubated in the dark at 37° C. for 4 h. MTT solution was removed and cells again washed with 200 μL PBS. MTT dye was solubilised with 200 μL per well of DMSO with agitation. Absorbance was read at 550 nm on an Anthos Labtec Systems plate reader.

Mia-Paca-2 = experiment: 72-h MTT cytotoxicity assay; assay type: cell-based; conditions: read-out: 72-h MTT IC50 (μM), human cell line, pancreatic carcinoma
Experimental: as §3

MDA-MB-231 = experiment: 72-h MTT cytotoxicity assay; assay type: cell-based; conditions: read-out: 72-h MTT IC50 (μM), human cell line, breast
Experimental: as §3

PANC W1 = experiment: 72-h MTT cytotoxicity assay; assay type: cell-based; conditions: read-out: 72-h MTT IC50 (μM), human cell line, pancreatic carcinoma
Experimental: as §3

HeLa = experiment: 72-h MTT cytotoxicity assay; assay type: cell-based; conditions: read-out: 72-h MTT IC50 (μM), human cell line, cervix
Experimental: as §3

A2780 = experiment: 72-h MTT cytotoxicity assay; assay type: cell-based; conditions: read-out: 72-h MTT IC50 (μM), human cell line, ovarian carcinoma
Experimental: as §3

NCI-H460 = experiment: 72-h MTT cytotoxicity assay; assay type: cell-based; conditions: read-out: 72-h MTT IC50 (μM), human cell line, lung
Experimental: as §3

CDK7 = CDK7 (Homo sapiens, UniProt P50613); experiment: Kinase assay (radioactive phosphate incorporation); assay type: biochemical; conditions: CDK7-cyclinH; read-out: Kinase inhibition IC50 CDK7-cyclinH
Chain of CDK7 (P50613 whole entry, species assumed): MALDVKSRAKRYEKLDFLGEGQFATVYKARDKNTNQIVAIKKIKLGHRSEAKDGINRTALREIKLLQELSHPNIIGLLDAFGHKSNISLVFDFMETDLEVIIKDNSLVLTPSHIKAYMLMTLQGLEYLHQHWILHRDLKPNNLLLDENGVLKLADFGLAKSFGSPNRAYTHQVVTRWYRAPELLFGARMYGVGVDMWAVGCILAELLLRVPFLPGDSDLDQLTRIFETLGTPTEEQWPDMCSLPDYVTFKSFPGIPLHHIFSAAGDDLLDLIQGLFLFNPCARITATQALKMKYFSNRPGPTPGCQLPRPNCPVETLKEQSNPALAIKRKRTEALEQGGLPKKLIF
Chain of CDK7 (P51946 whole entry partner, species assumed): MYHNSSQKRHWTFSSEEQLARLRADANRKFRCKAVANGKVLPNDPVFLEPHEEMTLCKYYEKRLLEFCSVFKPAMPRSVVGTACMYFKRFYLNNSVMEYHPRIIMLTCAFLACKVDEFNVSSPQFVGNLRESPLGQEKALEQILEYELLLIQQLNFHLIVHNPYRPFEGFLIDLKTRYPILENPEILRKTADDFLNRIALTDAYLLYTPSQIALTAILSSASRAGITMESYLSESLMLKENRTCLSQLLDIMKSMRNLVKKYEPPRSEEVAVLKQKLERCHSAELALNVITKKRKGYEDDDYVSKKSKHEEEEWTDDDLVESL
Experimental: Kinase assays. The compounds from the examples above were investigated for their ability to inhibit the enzymatic activity of various protein kinases using the method as disclosed in Wang, S. et al. J Med Chem 2004, 47, 1662. This was achieved by measurement of incorporation of radioactive phosphate from ATP into appropriate polypeptide substrates. Recombinant protein kinases and kinase complexes were produced or obtained commercially. Assays were performed using 96-well plates and appropriate assay buffers (typically 25 mM β-glycerophosphate, 20 mM MOPS, 5 mM EGTA, 1 mM DTT, 1 mM […], pH 7.4), into which were added 2-4 μg of active enzyme with appropriate substrates. The reactions were initiated by addition of Mg/ATP mix (15 mM MgCl2+100 μM ATP with 30-50 kBq per well of [γ-^32P]-ATP) and mixtures incubated as required at 30° C.; Reactions were stopped on ice, followed by filtration through p81 filterplates or GF/C filterplates (Whatman Polyfiltronics, Kent, UK). After washing 3 times with 75 mM aq orthophosphoric acid, plates were dried, scintillant added and incorporated radioactivity measured in a scintillation counter (TopCount, Packard Instruments, Pangbourne, Berks, UK). Compounds for kinase assay were made up as 10 mM stocks in DMSO and diluted into 10% DMSO in assay buffer.

Human tumour cell lines = experiment: 72-h MTT cytotoxicity assay, human tumour cell lines (panel / mean); assay type: cell-based; conditions: read-out: 72-h MTT IC50 (μM), mean over the nine human cell lines of Table A2
Experimental: as §3

[2] = CDK9-cyclinT1, read-out: Kinase inhibition IC50 CDK9-cyclinT1

Row | SMILES | GI50 (HCT-116) [µM] | GI50 (MCF-7) [µM] | GI50 at 72 h [1] [µM] | also measured
1 | COc1cccc(-c2nc(Cl)nc(Nc3ccc(C)c(S(=O)(=O)N4CCOCC4)c3)n2)c1 [Example 2.4, 4-chloro-6-(3-methoxyphenyl)-N-(4-methyl-3-(morpholinosulfonyl)phenyl)-1,3,5-triazin-2-amine] | 0.53 | 1.58 | 0.58 | 
2 | COc1cccc(-c2nc(Cl)nc(Nc3ccc(O)cc3)n2)c1 [Example 2.1, 4-(4-chloro-6-(3-methoxyphenyl)-1,3,5-triazin-2-ylamino)phenol] |  |  |  | melting point: 93.5 to 94 °C
3 | CNc1nc(C)c(-c2nc(Nc3ccc(S(N)(=O)=O)cc3)ncc2C#N)s1 [Example 1.8, 4-(5-cyano-4-(4-methyl-2-(methylamino)thiazol-5-yl)pyrimidin-2-ylamino)benzenesulfonamide] | 0.34 | 1.64 | 26 | 
4 | CNc1nc(C)c(-c2nc(Nc3cccc(C(=O)O)c3)ncc2C#N)s1 [Example 1.6, 3-(5-cyano-4-(4-methyl-2-(methylamino)thiazol-5-yl)pyrimidin-2-ylamino)benzoic acid] | 0.55 | 1.87 | > 100 | 
5 | COc1cccc(-c2nc(NO)nc(Nc3cccc([N+](=O)[O-])c3)n2)c1 [Example 2.8, 4-(hydroxyamino)-6-(3-methoxyphenyl)-N-(3-nitrophenyl)-1,3,5-triazin-2-amine] | 3.48 | 6.42 | 4.24 | 
6 | CNc1nc(C)c(-c2nc(Nc3ccc(O)cc3)ncc2C#N)s1 [Example 1.2, 2-(4-Hydroxy-phenylamino)-4-(4-methyl-2-methylamino-thiazol-5-yl)-pyrimidine-5-carbonitrile] | 0.4 | 0.23 | 1.05 | 
7 | CNc1nc(C)c(-c2nc(Nc3cccc(C(=O)N4CCN(C(C)=O)CC4)c3)ncc2C#N)s1 [Example 1.5, 2-(3-(4-Acetylpiperazine-1-carbonyl)phenylamino)-4-(4-methyl-2-(methylamino)-thiazol-5-yl)pyrimidine-5-carbonitrile] |  |  |  | IC50 (CDK9; [2]): 0.033 µM; IC50 (CDK2): 0.052 µM
8 | CNc1nc(C)c(-c2nc(Nc3cccc(O)c3)ncc2C#N)s1 [Example 1.3, 2-(3-Hydroxy-phenylamino)-4-(4-methyl-2-methylamino-thiazol-5-yl)-pyrimidine-5-carbonitrile] |  |  |  | IC50 (CDK9): 0.019 µM
9 | CNc1nc(C)c(-c2nc(Nc3ccc(C)c(S(=O)(=O)N4CCOCC4)c3)ncc2C#N)s1 [Example 1.1, 4-(4-Methyl-2-methylamino-thiazol-5-yl)-2-[4-methyl-3-(morpholine-4-sulfonyl)-phenylamino]-pyrimidine-5-carbonitrile] | 0.06 | 0.06 | 3.14 | IC50 (A549): 0.534 µM; IC50 (Mia-Paca-2): 0.468 µM; IC50 (MDA-MB-231): 0.923 µM; IC50 (PANC W1): 0.366 µM; IC50 (HeLa): 0.661 µM; IC50 (A2780): 0.147 µM; IC50 (NCI-H460): 0.681 µM; IC50 (HCT-116; read-out: 72-h MTT IC50 (μM), human cell line HCT-116 (origin not given, stands under cervix), 72 h): 0.06 µM; IC50 (MCF-7; MCF7, read-out: 72-h MTT IC50 (μM), human cell line, breast, MCF-7, 72 h): 0.06 µM; IC50 (CDK7): > 1 µM; IC50 (CDK9; [2]): 0.041 µM; IC50 (CDK2): 0.232 µM; IC50 (Human tumour cell lines): 0.433 µM
10 | CNc1nc(C)c(-c2nc(Nc3cccc(C(=O)N4CCOCC4)c3)ncc2C#N)s1 [Example 1.4] | 0.59 | 0.82 | 4.43 | IC50 (CDK7): 3.74 µM; IC50 (CDK9; [2]): 0.085 µM; IC50 (CDK2): 0.147 µM
11 | COc1cccc(-c2nc(N)nc(Nc3cccc([N+](=O)[O-])c3)n2)c1 [Example 2.6, 6-(3-methoxyphenyl)-N2-(3-nitrophenyl)-1,3,5-triazine-2,4-diamine] | 7.09 | 7.07 | 37.6 | 
12 | COc1cccc(-c2nc(Cl)nc(Nc3cccc(Br)c3)n2)c1 [Example 2.3, N-(3-bromophenyl)-4-chloro-6-(3-methoxyphenyl)-1,3,5-triazin-2-amine] |  |  |  | melting point: 141.9 to 142.1 °C
13 | COc1cccc(-c2nc(Cl)nc(Nc3cccc([N+](=O)[O-])c3)n2)c1 [Example 2.2, 4-chloro-6-(3-methoxyphenyl)-N-(3-nitrophenyl)-1,3,5-triazin-2-amine] |  |  |  | melting point: 196.9 to 197.2 °C
